We go through seven molecules from patent publication US12459951B2, “Compounds that interact with RAS superfamily proteins for treatment of cancers, inflammatory diseases, rasopathies, and fibrotic disease” (SHY Therapeutics, LLC, priority 2022, dated 2025).

The test system of assay [1] is KRas G12C mutant. The experiment in a line: Ras GTP Binding Domain Inhibition Assay (Ras Superfamily Assay). The following applies: 20 μM compound; for KRas G12C mutant + SOS: % inh.: with SOS; for KRas G12C mutant: % inh.: without SOS. The method, boiled down: (§1)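 Binding of 100 nM fluorescent GTP (Cy3 or Cy5, 45 min, room temperature) was read after washes from plate-captured His-tagged protein. Beforehand, compounds at 20 μM or in dilution series for IC50 sat 3 h on the protein in Tris buffer pH 7.4 or 7.0 with 1% DMSO, Sos GEF optionally added for the last hour.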

The target of assay [2] is T1, Rho-A (Homo sapiens, UniProt P61586).
T1 construct: made in house
T1 sequence (P61586 whole entry): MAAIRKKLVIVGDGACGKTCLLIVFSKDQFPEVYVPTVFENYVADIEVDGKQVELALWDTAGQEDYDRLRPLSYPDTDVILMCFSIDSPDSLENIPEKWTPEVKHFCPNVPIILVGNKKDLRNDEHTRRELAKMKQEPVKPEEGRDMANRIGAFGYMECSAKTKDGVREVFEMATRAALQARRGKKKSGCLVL
Described as above. The following applies: read-out: Rho-A: % inh.. The method, boiled down: as §1

Assay [3] relates to KRas Q61H mutant. Described as above. The following applies: 20 μM compound; for KRas Q61H mutant + SOS: % inh.: with SOS; for KRas Q61H mutant: % inh.: without SOS. The method, boiled down: as §1
Assay [4] addresses T2, Rac-1 (Homo sapiens, UniProt P63000).
T2 construct: made in house
Described as above. The following applies: read-out: Rac-1: % inh. In outline:
as §1

Assay [5] deals with KRas wild type. Described as above. To be noted: 20 μM compound; for KRas wild type + SOS: % inh.: with SOS; for KRas wild type: % inh.: without SOS. The method, boiled down: as §1
In assay [6] the test system is KRas G12D mutant. The description is as above. To be noted: 20 μM compound; for KRas G12D mutant + SOS: % inh.: with SOS; for KRas G12D mutant: % inh.: without SOS. In outline: as §1
In assay [7] the test system is Akt phosphorylation. The experiment in a line: Akt Phosphorylation Assay (western blot), Panc-1. To be noted: at 10 μM, * = activation. Type of assay: cell-based, human. The method, boiled down:
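Panc-1 (KRas G12D) cells were treated with compound at 10 μM final (0.3% DMSO) for 6 h at 37 °C, or with serial dilutions for IC50. Cells were either serum-starved overnight in 0.5% FBS and then stimulated with 1.5 ng/ml EGF for 15 min, or kept in 10% FBS without stimulation. Akt Ser473 phosphorylation in lysates was read by western blot.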

Regarding `COC[C@@H]1CC[C@@H]1CNc1nc(-c2ccccn2)nn2cc(-c3ccn(C(C)C)n3)c(-c3ccccc3)c12` (racemic) [Compound 26, rac 6-(1-Isopropyl-1H-pyrazol-3-yl)-N-(((1S,2R)-2-(methoxymethyl)cyclobutyl)methyl)-5-phenyl-2-(pyridin-2-yl)pyrrolo[2,1-f][1,2,4]triazin-4-amine], in assay [1], the “KRas G12C mutant + SOS: % inh.” value was “A (A = 1-25% inhibition)” and the “KRas G12C mutant: % inh.” value was 0 (0 = 0% inhibition). Moreover, the inhibition at 20 µM in assay [2] was in the range of 1 to 25%. Moreover, in assay [3], the “KRas Q61H mutant + SOS: % inh.” value was “A (A = 1-25% inhibition)” and the “KRas Q61H mutant: % inh.” value was “A (A = 1-25% inhibition)”. The inhibition at 20 µM in assay [4] was 0%. Also, in assay [5], the “KRas wild type + SOS: % inh.” value was 0 (0 = 0% inhibition) and the “KRas wild type: % inh.” value is on record as “A (A = 1-25% inhibition)”. In assay [6], the “KRas G12D mutant + SOS: % inh.” value is “A (A = 1-25% inhibition)” and the “KRas G12D mutant: % inh.” value is reported as 0 (0 = 0% inhibition). Further, the “% inh of Akt phosphorylation in Panc-1” value in assay [7] is reported as “C (50-84% inhibition)”.
Consider `Cc1c(-c2ccn(C(C)C)n2)cn2nc(-c3nccn3C)nc(Nc3nc(C4CC4)no3)c12` [Compound 70, 3-Cyclopropyl-N-(6-(1-isopropyl-1H-pyrazol-3-yl)-5-methyl-2-(1-methyl-1H-imidazol-2-yl)pyrrolo[2,1-f][1,2,4]triazin-4-yl)-1,2,4-oxadiazol-5-amine], for which, in assay [1], the “KRas G12C mutant + SOS: % inh.” value is given as 0 (0 = 0% inhibition) and the “KRas G12C mutant: % inh.” value is “A (A = 1-25% inhibition)”. In assay [2], the inhibition at 20 µM is 1 to 25%. In assay [3], the “KRas Q61H mutant + SOS: % inh.” value is reported as 0 (0 = 0% inhibition) and the “KRas Q61H mutant: % inh.” value is reported as “A (A = 1-25% inhibition)”. Also, in assay [4], the inhibition at 20 µM lay within 1 to 25%. Besides, in assay [5], the “KRas wild type + SOS: % inh.” value is reported as 0 (0 = 0% inhibition) and the “KRas wild type: % inh.” value was “A (A = 1-25% inhibition)”. In assay [6], the “KRas G12D mutant + SOS: % inh.” value was “A (A = 1-25% inhibition)” and the “KRas G12D mutant: % inh.” value is “A (A = 1-25% inhibition)”. The “% inh of Akt phosphorylation in Panc-1” value in assay [7] is “C* (46-84% activation)”.
For `COc1cccc(-c2cn3nc(-c4nccn4C)nc(O)c3c2-c2ccccc2)c1Cl` [Compound 28, 6-(2-Chloro-3-methoxyphenyl)-2-(1-methyl-1H-imidazol-2-yl)-5-phenylpyrrolo[2,1-f][1,2,4]triazin-4-ol], in assay [1], the “KRas G12C mutant + SOS: % inh.” value is given as “A (A = 1-25% inhibition)” and the “KRas G12C mutant: % inh.” value is given as “A (A = 1-25% inhibition)”. For the same molecule, the inhibition at 20 µM in assay [2] was 1 to 25%. In assay [3], the “KRas Q61H mutant + SOS: % inh.” value is recorded as “A (A = 1-25% inhibition)” and the “KRas Q61H mutant: % inh.” value is “A (A = 1-25% inhibition)”. In addition, the inhibition at 20 µM in assay [4] is 26 to 49%. In addition, in assay [5], the “KRas wild type + SOS: % inh.” value is listed as “A (A = 1-25% inhibition)” and the “KRas wild type: % inh.” value is “A (A = 1-25% inhibition)”. Also, in assay [6], the “KRas G12D mutant + SOS: % inh.” value is “A (A = 1-25% inhibition)” and the “KRas G12D mutant: % inh.” value was “A (A = 1-25% inhibition)”. The “% inh of Akt phosphorylation in Panc-1” value in assay [7] is on record as “A* (1-25% activation)”.
In the case of `COc1cccc(-c2cn3nc(-c4nccn4C)nc(N[C@@H]4CC[C@@H](OC)C4)c3c2-c2ccccc2)c1F` (racemic) [Compound 43, rac 6-(2-Fluoro-3-methoxyphenyl)-N-((1R,3R)-3-methoxycyclopentyl)-2-(1-methyl-1H-imidazol-2-yl)-5-phenylpyrrolo[2,1-f][1,2,4]triazin-4-amine], in assay [1], the “KRas G12C mutant + SOS: % inh.” value was 0 (0 = 0% inhibition) and the “KRas G12C mutant: % inh.” value was 0 (0 = 0% inhibition). Also, the inhibition at 20 µM in assay [2] was 1 to 25%. Moreover, in assay [3], the “KRas Q61H mutant + SOS: % inh.” value is “B (B = 26-49% inhibition)” and the “KRas Q61H mutant: % inh.” value was “B (B = 26-49% inhibition)”. Also, in assay [4], the inhibition at 20 µM was in the range of 1 to 25%. Further, in assay [5], the “KRas wild type + SOS: % inh.” value is recorded as 0 (0 = 0% inhibition) and the “KRas wild type: % inh.” value is 0 (0 = 0% inhibition). Further, in assay [6], the “KRas G12D mutant + SOS: % inh.” value is given as 0 (0 = 0% inhibition) and the “KRas G12D mutant: % inh.” value was “A (A = 1-25% inhibition)”. The “% inh of Akt phosphorylation in Panc-1” value in assay [7] is listed as “B (26-49% inhibition)”.
As to `COc1ccc(-c2cn3nc(-c4nccn4C)nc(Nc4cc(OC)ncn4)c3c2C)cn1` [Compound 66, 6-(6-Methoxypyridin-3-yl)-N-(6-methoxypyrimidin-4-yl)-5-methyl-2-(1-methyl-1H-imidazol-2-yl)pyrrolo[2,1-f][1,2,4]triazin-4-amine], in assay [1], the “KRas G12C mutant + SOS: % inh.” value is given as “C (C = 50-75% inhibition)” and the “KRas G12C mutant: % inh.” value is recorded as “D (D = 76-100% inhibition)”. Besides, the inhibition at 20 µM in assay [2] is 76 to 100%. For the same molecule, in assay [3], the “KRas Q61H mutant + SOS: % inh.” value is listed as “D (D = 76-100% inhibition)” and the “KRas Q61H mutant: % inh.” value is given as “D (D = 76-100% inhibition)”. Also, in assay [4], the inhibition at 20 µM was in the range of 76 to 100%. In assay [5], the “KRas wild type + SOS: % inh.” value was “D (D = 76-100% inhibition)” and the “KRas wild type: % inh.” value is “D (D = 76-100% inhibition)”. Also, in assay [6], the “KRas G12D mutant + SOS: % inh.” value is on record as “D (D = 76-100% inhibition)” and the “KRas G12D mutant: % inh.” value is “D (D = 76-100% inhibition)”. Besides, the “% inh of Akt phosphorylation in Panc-1” value in assay [7] is “D* (85-100% activation)”.
Turning to `COc1cc(Nc2nc(-c3nccn3C)nn3cc(-c4ccncc4)c(C)c23)ncn1` [Compound 49, N-(6-Methoxypyrimidin-4-yl)-5-methyl-2-(1-methyl-1H-imidazol-2-yl)-6-(pyridin-4-yl)pyrrolo[2,1-f][1,2,4]triazin-4-amine], in assay [1], the “KRas G12C mutant + SOS: % inh.” value is 0 (0 = 0% inhibition) and the “KRas G12C mutant: % inh.” value was “A (A = 1-25% inhibition)”. In addition, the inhibition at 20 µM in assay [2] fell in the range of 26 to 49%. In assay [3], the “KRas Q61H mutant + SOS: % inh.” value is listed as “D (D = 76-100% inhibition)” and the “KRas Q61H mutant: % inh.” value is “D (D = 76-100% inhibition)”. Besides, the inhibition at 20 µM in assay [4] lay within 26 to 49%. Also, in assay [5], the “KRas wild type + SOS: % inh.” value is on record as 0 (0 = 0% inhibition) and the “KRas wild type: % inh.” value is “B (B = 26-49% inhibition)”. In assay [6], the “KRas G12D mutant + SOS: % inh.” value was “B (B = 26-49% inhibition)” and the “KRas G12D mutant: % inh.” value is “C (C = 50-75% inhibition)”. Also, the “% inh of Akt phosphorylation in Panc-1” value in assay [7] is “D* (85-100% activation)”.
In the case of `Cc1c(-c2ccn(C(C)C)n2)cn2nc(-c3nccn3C)nc(Nc3ncccn3)c12` [Compound 54, 6-(1-Isopropyl-1H-pyrazol-3-yl)-5-methyl-2-(1-methyl-1H-imidazol-2-yl)-N-(pyrimidin-2-yl)pyrrolo[2,1-f][1,2,4]triazin-4-amine], in assay [1], the “KRas G12C mutant + SOS: % inh.” value is listed as “C (C = 50-75% inhibition)” and the “KRas G12C mutant: % inh.” value is listed as “D (D = 76-100% inhibition)”. Also, the inhibition at 20 µM in assay [2] lay in the range of 76 to 100%. In assay [3], the “KRas Q61H mutant + SOS: % inh.” value is on record as “D (D = 76-100% inhibition)” and the “KRas Q61H mutant: % inh.” value is “D (D = 76-100% inhibition)”. In addition, the inhibition at 20 µM in assay [4] lay in the range of 76 to 100%. In addition, in assay [5], the “KRas wild type + SOS: % inh.” value was “C (C = 50-75% inhibition)” and the “KRas wild type: % inh.” value is “C (C = 50-75% inhibition)”. In addition, in assay [6], the “KRas G12D mutant + SOS: % inh.” value is reported as “C (C = 50-75% inhibition)” and the “KRas G12D mutant: % inh.” value is “D (D = 76-100% inhibition)”. The “% inh of Akt phosphorylation in Panc-1” value in assay [7] is “B* (26-49% activation)”.
